The values below come from US20240317735A1, “HYDROISOQUINOLINE OR HYDRONAPHTHYRIDINE COMPOUNDS FOR THE TREATMENT OF AUTOIMMUNE DISEASE” (Hoffmann-La Roche Inc., priority 2020, published 2024).

Read-outs that look alike come from different tables or passages of the source.

Data set [1] can be described thus: Single dose pharmacokinetics (PK) study in male Wister-Han rats. It is filed as in vivo, rat. To be noted: for F: dose normalized AUC0-last PO 10 mg/kg vs IV 2 mg/kg; for AUC(0-t) / Cmax / clearance / half-life / Vd: rat, plasma; for Vd: read-out: Vss. The protocol:
Pharmacokinetic properties of selected compounds were assessed by single dose PK studies in Male Wister-Han Rats (vendor: Beijing Vital River Laboratory Animal Technology Co., Ltd). Briefly, two groups of animals were administered a single dose of respective compound intravenously (IV, bolus) at 2 mg/kg or orally (PO, by gavage) at 10 mg/kg. Blood samples (approximately 150 μL) were collected via Jugular vein at 5 min (only for IV), 15 min, 30 min, 1 h, 2 h, 4 h, 7 h and 24 h post-dose. Blood samples were placed into tubes containing EDTA-K2 anticoagulant and centrifuged at 3000 rpm for 15 min at 4° C. to separate plasma from the samples. After centrifugation, the resulting plasma was transferred to clean tubes for bioanalysis with LC/MS/MS. The pharmacokinetic parameters were calculated using non-compartmental analysis. The volume of distribution (Vss), half-life (T1/2) and clearance (CL) were obtained based on the plasma concentration-time curve after IV dose. The peak concentration (Cmax) was recorded directly from experimental observations after PO dose. The area under the plasma concentration-time curve (AUC0-last) was calculated using the linear trapezoidal rule up to the last detectable concentration. The bioavailability (F) was calculated based on the dose normalized AUC0-last after IV and PO dose.
The Vss of a drug represents the degree to which a drug is distributed in body tissue rather than the plasma. Vss is directly proportional with the amount of drug distributed into tissue. A higher Vss indicates a greater amount of tissue distribution.

Data set [2] concerns embryonic stem cells (D3) and 3T3 fibroblasts. The data set is described as follows: mouse Embryonic Stem Cell Test (mEST). It is filed as cell-based. The conditions noted are these: <0.5 negative, >0.6 positive, 0.5-0.6 borderline. The text has this:
The in vitro mouse Embryonic Stem Cell Test (mEST) assay is an implemented routine assay at Roche. The original EST was developed by Horst Spielmann and his group in 1997 as an in vitro model for the screening of embryotoxicity, based on a blastocyst-derived permanent embryonic mouse ESC (mESC) D3 cell line derived from mouse 129 strains and was validated by European Centre for the Validation of Alternative Methods (ECVAM).
We further optimized and modified the approach allowing for the application of the assay to pharmaceutical compounds.
The cytotoxicity (inhibition of growth) of 3T3 fibroblasts, which represents differentiated cells and the cytotoxicity of undifferentiated embryonic stem cells (D3) after 10 days of substance treatment serve as two assay endpoints. This is determined by the use of dehydrogenase enzymes, which are present in the intact mitochondria of living cells to convert yellow soluble substrate 3-(4,5-dimethythiazol-2-yl)-2,5-diphenyl tetrazolium bromide (MTT) into a dark blue insoluble formazan product, which gets sequestered within the cells and is detected quantitatively using an absorbance reader (570 nm) after solubilizing the cell membrane.
The third endpoint is the inhibition of differentiation of ES cells into myocards which are cardiac muscle cells after 10 days of treatment. The beating of this cells is evaluated by microscopy.
• 1) Cell passage with trypsin 0.05% EDTA for D3 cells. • 2) Assembly of the cell suspension: dilute cells to 2.5×10^4/mL with 18 ml media (for each test) in 50 mL Falcon tubes. • 3) Prepare the petri dishes (PD): add 5-10 mL sterile Dulbecco's PBS (Gibco) into each dish bottom, distribute over the whole dish. • 4) Dilution series of test compound in Eppendorf tubes: add 5 μL of compound (1:400 dilution) and 5 μL control solution (DMSO) to 2 mL cell suspension, vortex. • 5) Preparation of hanging drops in petridishes: vortex tube, aspirate suspension with automatic pipette and multi-dispense 20 μL drops onto the lid of the petri dish, add 2 mL in total in a concentric circle of drops (˜100 drops); quickly but smoothly turn the cover and put on PD; incubate for 3 days at 37° C./5% CO2.
• 1) Dilution series of compound in 14 mL PP tubes • 6 tubes for the concentrations; fill with 5 mL assay media • 1 tube for DMSO (solvent control) fill with 5 mL assay media • 2) Dilution series of compound in Eppendorf tubes • Add 12.5 μL of compound (1:400 dilution) and 12.5 μL control solution, vortex • 3) Transfer of embryoid bodies in a bacterial Petri dish • Carefully turn PD lid, check the drops for fungus contamination • Rinse several times the drops down with 5 mL of the prepared solution • Transfer in a bacterial petri dish Incubate for 3 days at 37° C./5% CO2 […]

[3] abbreviates: IV 2 mg/kg, read-out: IV AUC0-last.
[4] abbreviates: PO 10 mg/kg, read-out: PO AUC0-last.

By Cmax is commonly meant the maximum level reached in the sampled fluid or tissue. The term clearance denotes the volume of plasma or blood freed of the substance per unit of time. The low end stands for a low capacity for elimination, the high end for a high capacity for elimination. Usually half-life stands for the time needed for the level to fall by half in the phase considered. The low end stands for rapid decline, the high end for slow decline.

As for `C[C@H]1CN(c2ccnc3c2cnn3C)Cc2ccc(N3CCNCC3)cc21` [Example 1, (4R)-4-methyl-2-(1-methylpyrazolo[3,4-b]pyridin-4-yl)-6-piperazin-1-yl-3,4-dihydro-1H-isoquinoline], in data set [1], the F worked out at 113%. Also, the AUC(0-t) in data set [1] (setting [3]) came to 1290 ng·h/mL. Also, the Cmax in data set [1] (PO 10 mg/kg) amounted to 474 ng/mL. Further, in data set [1] (setting [4]), the AUC(0-t) was 7270 ng·h/mL. Moreover, in data set [1] (IV 2 mg/kg), the clearance was determined as 24 mL/min/kg, the half-life is 6.9 h and the Vd came out at 11.2 L/kg.

As for `C[C@H]1CN(c2ccnc3c2cnn3C)Cc2ccc(OC[C@H]3CNCCN3)cc21` [Example 18, (4R)-4-methyl-2-(1-methylpyrazolo[3,4-b]pyridin-4-yl)-6-[[(2R)-piperazin-2-yl]methoxy]-3,4-dihydro-1H-isoquinoline], the “Predictive scores D12_3” value in data set [2] is on record as 0.11.

For the compound `C[C@H]1CN(c2ccnc3c2cnn3C)Cc2ccc(OC[C@@H]3CNCCN3)cc21` [Example 19, (4R)-4-methyl-2-(1-methylpyrazolo[3,4-b]pyridin-4-yl)-6-[[(2S)-piperazin-2-yl]methoxy]-3,4-dihydro-1H-isoquinoline], the “Predictive scores D12_3” value in data set [2] is 0.05. The F in data set [1] turned out to be 32%. In addition, the AUC(0-t) in data set [1] (setting [3]) came out at 887 ng·h/mL. The concentration in data set [1] (PO 10 mg/kg) peaked (Cmax) at 102 ng/mL. The AUC(0-t) in data set [1] (setting [4]) was found to be 1410 ng·h/mL. Also, in data set [1] (IV 2 mg/kg), the clearance was determined as 34 mL/min/kg, the half-life is 8.9 h and the Vd came to 16 L/kg.

As for `CO[C@@H]1CN(c2ccc3c(c2)[C@@H](C)CN(c2ccnc4c2cnn4C)C3)C[C@H]1N` [Example 20, (3R,4R)-4-methoxy-1-[(4R)-4-methyl-2-(1-methylpyrazolo[3,4-b]pyridin-4-yl)-3,4-dihydro-1H-isoquinolin-6-yl]pyrrolidin-3-amine], the “Predictive scores D12_3” value in data set [2] is 0.49. In data set [1], this compound registered an F of 60%. For the same compound, the AUC(0-t) in data set [1] (setting [3]) was 5480 ng·h/mL. Further, in data set [1] (PO 10 mg/kg), the Cmax stood at 1140 ng/mL. In data set [1] (setting [4]), the AUC(0-t) turned out to be 16500 ng·h/mL. Moreover, in data set [1] (IV 2 mg/kg), the clearance amounted to 6 mL/min/kg, the half-life was 3.3 h and the Vd amounted to 1.5 L/kg.

In turn, `CO[C@@H]1CN(c2ccc3c(c2)[C@@H](C)CN(c2cc(C)nc4c2cnn4C)C3)C[C@H]1N` [Example 23, (3R,4R)-4-methoxy-1-[(4R)-2-(1,6-dimethylpyrazolo[3,4-b]pyridin-4-yl)-4-methyl-3,4-dihydro-1H-isoquinolin-6-yl]pyrrolidin-3-amine] gave a F in data set [1] of 73%. For the same compound, in data set [1] (setting [3]), the AUC(0-t) is 7550 ng·h/mL. The Cmax in data set [1] (PO 10 mg/kg) turned out to be 1600 ng/mL. The AUC(0-t) in data set [1] (setting [4]) stood at 27500 ng·h/mL. In data set [1] (IV 2 mg/kg), the clearance is 3.7 mL/min/kg, the half-life was 10.5 h and the Vd is 2.7 L/kg.

Consider `CO[C@@H]1CN(c2ccc3c(n2)[C@@H](C)CN(c2cc(C)nc4c2cnn4C)C3)C[C@H]1N` [Example 63, (3R,4R)-4-methoxy-1-[(8S)-6-(1,6-dimethylpyrazolo[3,4-b]pyridin-4-yl)-8-methyl-7,8-dihydro-5H-1,6-naphthyridin-2-yl]pyrrolidin-3-amine], for which, in data set [2], the “Predictive scores D12_3” value is 0.43. Further, the F in data set [1] amounted to 98%. Besides, in data set [1] (setting [3]), the AUC(0-t) is 80700 ng·h/mL. In data set [1] (PO 10 mg/kg), this compound returned a Cmax of 22200 ng/mL. In addition, the AUC(0-t) in data set [1] (setting [4]) was 394000 ng·h/mL. Also, in data set [1] (IV 2 mg/kg), the clearance was determined as 0.26 mL/min/kg, the half-life was 18.3 h and the Vd was 0.38 L/kg.
